# Experimental data as given in patent publication US12544335B2, “Treatment approach by targeted delivery of bioactive molecules” (priority 2018, dated 2026).
# Columns and labels:
# [1] = In-vitro release of isoniazid from CaS/HA pellets in PBS; assay type: physicochemical; details: day 1, PBS
# Procedure: Method: Isoniazid was mixed to CaS/HA biomaterial and equal volume pellets were created. Each pellet was then placed in a 1.5 mL tube and filled with 1 mL phosphate buffered saline (PBS). At each time point, the old PBS was removed and frozen until the day of analysis. The tube was refilled with fresh PBS (1 mL). All samples were analyzed spectrophotometrically and the concentration of the released antibiotic was calculated from a standard curve of isoniazid made in PBS.
# [2] = test system: S. aureus; test: Example 18: zone of inhibition of materials harvested from rat muscle pouch; assay type: cell-based; details: Cerament G / Cerament V, 2 weeks implanted, no systemic antibiotic
# Source text: Small pellets of pristine hydroxyapatite (HA) of nano or micro size (wherein the micro-HA particles are about 10 μm, wherein the nano-HA particles are less than 200 nm and a majority of the nano-HA particles about 50 nm) were implanted in the abdominal muscle pouch of rats (Group 1). In another set of animals, pellets of calcium sulphate and micro-sized HA (Cerament) containing gentamycin (Cerament G) or vancomycin (Cerament V) were implanted in the muscle pouch of rats (Group 2).
# […] Tibial cortical bone samples were also collected as positive control and muscle tissue from the abdomen was collected as a negative control.
# In group 2, no antibiotics were administered systemically, and the implants only contained locally added antibiotics at the time of administration.
# All samples were snap frozen in liquid nitrogen and pulverized using a mortar and pestle. Pulverized specimens were then placed in a silicon mold, casted as a pellet and placed in a bacterial culture plate containing S. aureus, a common pathogen found in bone and joint infections.
# [3] = Accretion and long-term availability of 14C-ZA in CaS/HA in femoral neck canal; assay type: in vivo, osteoporotic rats; details: systemic dose 0.1 mg/kg 2 weeks post implantation
# Procedure: Methods: The CaS/HA biomaterial was implanted in the femoral neck canal of 6 osteoporotic rats. The animals (n=3) then received a systemic (sub-cutaneous) dose of ^14C-ZA (0.1 mg/kg, specific radioactivity: 7.1 MBq/mL) 2-weeks post implantation. The animals were sacrificed 6 months post implantation (5 months and 2 weeks post injection). Results: The uptake of ^14C-ZA in the animals that were given a systemic dose of ^14C-ZA was verified using scintillation counting. Results are illustrated in FIG. 6.
# [4] = Uptake of systemic 14C-ZA in CaS/HA pellet in abdominal muscle pouch; assay type: in vivo, rats
# Procedure: 2-weeks after surgery, the animals were injected with ^14C labelled ZA (0.1 mg/kg, specific radioactivity: 7.1 MBq/mL) via the systemic route (sub-cutaneous) and the radioactivity was measured in 1) the CaS/HA pellet placed in the muscle and 2) surrounding muscle 24-h later.
# [5] = Apatite particle size dependence of 14C-ZA uptake in muscle pouch; assay type: in vivo, rats; details: 25 mg particles, 0.1 mg/kg ZA 2 weeks post implantation, 1 day post injection
# Procedure: Method: We used 25 mg of micro sized pure apatite particles (size: 10 μm) and 25 mg of nano sized apatite particles (size: <200 nm) and placed them bilaterally in the abdominal muscle pouch of rats. Each animal then received a systemic dose of ^14C-ZA 2-weeks post implantation (Injection dose: 0.1 mg/kg ZA, drug/rat: 40 μg, specific radioactivity: 7.1 MBq/mL, ZA concentration: 1 mg/mL). The rats were sacrificed 1-day post injection and the radioactivity in micro and nano apatite particles was measured using scintillation counting.
# [6] = Re-loading of apatite particles by repeated 14C-ZA injection; assay type: in vivo, rats; details: injections day 14 and day 27, average
# Procedure: Methods: We used 25 mg of micro sized pure apatite particles (size: 10 μm) and 25 mg of nano sized apatite particles (size: <200 nm) and placed them bilaterally in the abdominal muscle pouch of rats. Two different time points were used. At time point 1 (day 14), all animals received the same amount of the radioactive ^14C-ZA. […] All animals were sacrificed a day later and the uptake of the drug measured in the apatite particles of two different sizes using scintillation counting.
# [7] = In-vivo doxorubicin binding to nano apatite particles in muscle pouch, fluorescence microscopy; parameters: species or system rats
# Procedure: Methods: 25 mg of nano sized apatite particles (size <200 nm) were implanted in the abdominal muscle pouch of rats. Animals were injected with 5 mg/kg doxorubicin re-suspended in PBS 2-weeks post implantation and the animals were sacrificed 1 day later. The specimens were harvested from the implanted muscle pouch and as a positive control, the site of doxorubicin systemic injection (skin under the neck) was also taken for histology. The samples were embedded in paraffin and cut to a thickness of 5 μm. The samples were then analyzed on a fluorescent microscope (excitation: 485 nm and emission: 580 nm).
# [8] = In-vitro doxorubicin binding to apatite particles; details: 10 μg Doxorubicin in 1 mL PBS, 48 h
# Procedure: Methods: 5 mg, 10 mg and 20 mg apatite particles were suspended in 1 mL PBS containing 10 μg Doxorubicin and homogenously distributed in the suspension using sonication for 5 min. The specimens were rotated gently on a rotational shaker for 48 h (speed: 50 rpm). After 48 h, the specimens were centrifuged to obtain a pellet of the apatite particles and the supernatant was collected. The apatite particles were then resuspended in 1 mL of PBS, thoroughly pipetted to wash the unbound drug. At this point, the particles were centrifuged again and the supernatant was collected. The washing was repeated once again using the same protocol and the supernatant from the original time and 2 supernatants from the washing steps were measured for fluorescence on a spectro fluorimeter (excitation: 485 nm and emission: 580 nm). Bound doxorubicin to the apatite particles was also detected using fluorescence microscopy. Unbound free drug was used as a control.
# [9] = In-vitro doxorubicin release from CaS/HA pellets; assay type: physicochemical
# Procedure: Methods: Pellets of CaS/HA biomaterial were made by mixing 10 μg Doxorubicin/pellet. Each pellet containing 10 μg Doxorubicin was immersed in 1 mL PBS at two different pH (5 and 7.4). At each time point, old PBS was frozen until further analysis and the tube refilled with 1 mL fresh PBS. The experiment was conducted for a period of 4-weeks. Supernatants were analyzed on a spectro fluorimeter (excitation: 485 nm and emission: 580 nm).
# [10] = test system: S. aureus ATCC 25923; test: In-vivo biomodulation of HA pellets by systemic TET, disk diffusion assay; assay type: cell-based; details: TET 25 mg/rat i.p. for 3 days, 24 h after 3rd injection
# Procedure: METHODS: (1) In-vitro binding experiment: Nano-HA powder of <200 nm particle size, with a majority of the particles being in size of about 50 nm (100 mg; Fluidnova) was measured in 2 mL microcentrifuge tubes in triplicates and 1 mL of TET solution (4 μg/mL) was added. After vortex mixing, tubes were kept on a rotator at 180 RPM for 1, 6, and 12 h. At desired time points, the tubes were removed and centrifuged at 14000 RPM for 2 min. The supernatant was discarded and sediments were then “washed” 4 times by adding 1 mL of saline (NaCl 0.9%) followed by vortex mixing and centrifuging at 14000 RPM for 2 min. After 4 washing-cycles, supernatants were discarded and 60 μL of hyaluronic acid (HAD, 1 mg/mL) was added to the sediments and mixed. Pastes were then transferred to an elastic mold (Ø=4.7 mm) and placed at −20° C. for an hour to freeze nano-HA paste into pellet. Frozen pellets were removed from the molds and brought to room temperature. […] After overnight incubation at 37° C., the diameter of the zone of inhibition (ZOI) around the pellets were measured.
# (2) In-vivo biomodulation: Pellets of nano-/micro-HA were prepared by mixing 100 mg of nano-/micro-HA (Fluidnova, wherein the micro-HA particles are about 10 μm, and wherein the nano-HA particles are less than 200 nm and a majority of the nano-HA particles about 50 nm) with 60 and 80 μL of HAD, (1 mg/mL) respectively. […]
# [11] = Tetracycline uptake in CaS/HA pellet in muscle pouch, fluorescence microscopy; details: 1 day later
# Procedure: Methods: A pellet of CaS/HA biomaterial (5 mm diameter×2 mm height) was placed in an abdominal muscle pouch of rats. […] 1-day later, the animals were sacrificed and the pellet of CaS/HA as well as surrounding muscle was harvested, fixed in formalin (4%) and embedded in paraffin. The tissue was then cut using a microtome to a thickness of 5 μm. The sections were de-paraffinized using xylene, rehydrated using decreasing ethanol gradient and cleared in water. Finally, the sections were analyzed on a fluorescence microscope (Zeiss, Japan Filter: FITC, Gain: 0, Exposure: 150 ms).
# [12] = Long term elution of gentamycin from HA/Sulphate carrier; assay type: physicochemical
molecule,measurement,setting,value
NNC(=O)c1ccncc1 [Isoniazid],antibiotic released from CaS/HA,[1],approximately 60%
CN[C@H](CC(C)C)C(=O)N[C@H]1C(=O)N[C@@H](CC(N)=O)C(=O)N[C@H]2C(=O)N[C@H]3C(=O)N[C@H](C(=O)N[C@H](C(=O)O)c4cc(O)cc(O)c4-c4cc3ccc4O)[C@H](O)c3ccc(c(Cl)c3)Oc3cc2cc(c3O[C@@H]2O[C@H](CO)[C@@H](O)[C@H](O)[C@H]2O[C@H]2C[C@](C)(N)[C@H](O)[C@H](C)O2)Oc2ccc(cc2Cl)[C@H]1O [Vancomycin],inhibition of bacterial growth by CaS/HA with locally added antibiotic,[2],could not inhibit bacterial growth
"O=P(O)(O)C(O)(Cn1ccnc1)P(=O)(O)O [ZA, Zoledronic Acid]",time the drug stays in the apatite material,[3]; listed as zoledronic acid,6 months
O=P(O)(O)C(O)(Cn1ccnc1)P(=O)(O)O [^14C-ZA],uptake of 14C-ZA in CaS/HA biomaterial,"[4]; 0.1 mg/kg sub-cutaneous 2 weeks after surgery, measured 24 h later",obvious
same,radioactivity in muscle surrounding the implant,"[4]; 0.1 mg/kg sub-cutaneous, 24 h later",very low radioactive counts
same,"uptake of 14C-ZA, micro (10 μm) vs nano (<200 nm) apatite particles",[5],higher in micro-apatite particles compared to nano-apatite particles in 4 out of 5 specimens
same,time the drug stays in the apatite material,[3],at least 6 months
same,increase of counts of 14C-ZA after 2 injections compared to one injection,[6]; micro-particles (10 μm),72%
same,higher counts of 14C-ZA after 2 injections compared to one injection,[6]; nano-apatite particles (<200 nm),77%
COc1cccc2c1C(=O)c1c(O)c3c(c(O)c1C2=O)C[C@@](O)(C(=O)CO)C[C@@H]3O[C@H]1C[C@H](N)[C@H](O)[C@H](C)O1 [doxorubicin],fluorescence at the site of injection,"[7]; 5 mg/kg, 1 day after injection, positive control site",Strong fluorescent staining
same,fluorescence in muscle 1 cm distal from the implant,"[7]; 5 mg/kg, 1 day later",did not show any fluorescence
same,fluorescence in apatite particles and area immediately around,"[7]; 25 mg nano apatite, 5 mg/kg 2 weeks post implantation, 1 day later",relatively weak but positive signal
same,drug bound to apatite particles,[8]; 5 mg apatite particles,approximately 10%
same,drug bound to apatite particles,[8]; 10 mg apatite particles,30%
same,drug bound to apatite particles,[8]; 20 mg apatite particles,approximately 75%
same,release at later time points,"[9]; after day 3, up to 4 weeks",No further release
same,burst release of the drug from CaS/HA,"[9]; day 1 and 3, PBS pH 5 and 7.4, 10 μg/pellet",20-35%
same,release in low pH group compared with pH 7.4,[9]; pH 5 vs 7.4,slightly higher release
CN(C)[C@@H]1C(O)=C(C(N)=O)C(=O)[C@@]2(O)C(O)=C3C(=O)c4c(O)cccc4[C@@](C)(O)[C@H]3C[C@@H]12 [tetracycline],ZOI of kidney samples,[10],14-17 mm
same,ZOI of liver samples,[10],10-12 mm
same,uptake of tetracycline in CaS/HA biomaterial,[11]; 25 mg/kg sub-cutaneous 2 weeks after surgery,clear uptake
same,uptake of tetracycline in surrounding muscle,[11]; 25 mg/kg sub-cutaneous,no uptake
Gentamycin,inhibition of bacterial growth by CaS/HA with locally added antibiotic,[2],could not inhibit bacterial growth
same,release of gentamycin from biphasic HA/Sulphate carrier,[12]; at one month,complete release
same,time by which the Apatite/Sulphate material releases gentamycin,"[12]; trend line, elution over 2 months",≤ 4 weeks
